The subject of one assay is human neutrophils. Put plainly: Immunoblot of PMA-treated human neutrophils (cell death markers, histone H3 acetylation and citrullination). The class given is cell-based. Particulars: for PMA-induced gasdermin D (GSDMD) cleavage: 1 μM PMA; for PMA-induced gasdermin D (GSDMD) cleavage / activation of apoptosis or necroptosis: immunoblot FIG. 1E; for activation of apoptosis or necroptosis: PMA-treated cells exposed to drug; for H3 citrullination: compared with cells treated with PMA only. In general terms: A western blot detects proteins with antibodies after separation by electrophoresis.

A further assay has as its system poly(I:C)-treated mice. The assay can be described thus: Poly(I:C) pulmonary NET induction, mouse model of RNA viral lung infection. Type of assay: in vivo. As to conditions: for NET induction (CitH3 and MPO-DNA complexes in BALF and lung tissue): ELISA, FIGS. 2E-2H; for neutrophils in the BALF and in the lung: compared with poly(I:C) only, FIGS. 6D-6F; for neutrophil levels in the blood: cytofluorimetry, FIGS. 6B and 6C; for morbidity, measured as temperature drop / lung permeability (albumin content in BALF) / lung functionality (airway hyperreactivity to methacholine): ricolinostat 30 mg/kg/dose or GSK484 25 mg/kg/dose i.p., vs poly(I:C) only; for morbidity, measured as temperature drop: FIG. 2B; for lung permeability (albumin content in BALF): FIG. 2C; for lung functionality (airway hyperreactivity to methacholine): FIG. 2D. How it is done:
Mice were intratracheally treated with 2.5 mg/kg poly(I:C) or saline daily for 4 days and euthanized 18 h post the last poly(I:C) instillation. Ricolinostat (30 mg/kg/dose) or GSK484 (25/mg/kg/dose) was administered intraperitoneally at day 2, day 4, and 3 h before the endpoint. • (B) Body temperature measurements at the endpoint. • (C) Lung permeability was measured as albumin content level in the BALF (n=5). • (D) Measure of airway hyperreactivity (AHR) in the indicated groups in response to increasing concentration of methacholine. RI, responsiveness index. • (E-H) CitH3 and MPO-DNA levels were analyzed by ELISA in BALFs (E, F) and in lungs (G, H) of mice treated as indicated. The saline group represents mice that received saline instead of poly(I:C). NT group represents mice that were challenged with poly(I:C) without receiving any drug. Statistics were calculated using one-way ANOVA (B, C, E-H) and two-way ANOVA with Tukey's analysis (D) (*p<0.05; **p<0.01; ***p<0.001; ****p<0.0001. n.s., not significant). n=10 (B, D) and 15 (E-H) for each group except for the GSK484-treated group (n=5). Gray stars represent comparison of all experimental groups with the saline-treated control. Black stars represent comparison between drug-treated groups and mice treated with poly(I:C) alone. Violin plots represent median (dashed line) with quartiles (dotted line). See also FIGS. 6A-F.
Nuclei are stained with DAPI (blue), and anti-neutrophils antibody (red). Scale bar=100 μm. • B-F) Neutrophils numbers and percentage were calculated in blood (B, C), BALFs (D, E), and lung tissues (F) of mice challenged, or not, with poly(I:C). The saline group represents mice that received saline instead of poly (I:C). NT group represent mice that were challenged with poly (I:C) without receiving any drug. Ricolinostat (30 mg/kg/dose) or GSK484 (25 mg/kg/dose) were administered intraperitoneally at day 2, day 4 and 3 h prior the endpoint. Violin plots represent median (dashed line) with quartiles (dotted line). Statistics were calculated using One-way ANOVA (*P<0.05; **P<0.01; ***P<0.001; ****P<0.0001; n.s., not significant). Grey stars represent comparison of all experimental groups with the saline control. Black stars represent comparison of drug treated groups with NT group.
NETosis was measured in bronco-alveolar lavage fluid or lung tissue homogenates as quantity of citrullinated histone H3 with Citrullinated histone H3 ELISA kit (Cayman) and as quantity of myeloperoxidase (MPO)-DNA complexes by using a modified Cell Death Detection ELISA (Roche). Briefly, anti-myeloperoxidase antibody (ThermoFisher) was used to coat a high-binding 96 multi-well plate overnight at 4° C. Following a 1 h blocking with 2% BSA/PBS solution, samples were added for an overnight incubation at 4° C. Finally, DNA was detected with Cell Death Detection kit according to manufacture instruction. Absorbance was measured at 405 nm and MPO-DNA complex levels were quantified as normalized relative to saline.
6-8 weeks-old female mice were treated daily with 2.5 mg/kg of poly (I:C) for 4 days and euthanized 18 hours post the last poly(I:C) intra-tracheal instillation, as previously described (Broggi et al., 2020). Temperatures were monitored with a rectal probe. NETosis was measured in bronco-alveolar lavage fluid and lung homogenates as quantity of citrullinated histone H3 and quantity of MPO-DNA complexes. Ricolinostat (30 mg/kg/dose) and GSK484 (25 mg/kg/dose) were administered intraperitoneally at day 2, day 4 and 3 hours prior the end point.
For orientation: In an ELISA, binding on a coated surface is turned into a signal by an enzyme label.

Consider `COc1cc(C(=O)N2CC[C@@H](O)[C@@H](N)C2)cc2nc(-c3cc4ccccc4n3CC3CC3)n(C)c12` [GSK484], for which, in the assay on human neutrophils, the “PMA-induced gasdermin D (GSDMD) cleavage” value is “not altered” and the “activation of apoptosis or necroptosis” value is “excluded the activation of apoptosis or necroptosis”. In the assay with human neutrophils (FIGS. 1E and 1F), the H3 citrullination result was “completely abrogated”. In the assay with poly(I:C)-treated mice, the “NET induction (CitH3 and MPO-DNA complexes in BALF and lung tissue)” value is “abrogated”; the “neutrophils in the BALF and in the lung” value is “trend of accumulation”; the “neutrophil levels in the blood” value is listed as “did not change significantly”; the “morbidity, measured as temperature drop” value is given as “significantly reduced”. In the assay with poly(I:C)-treated mice, the “lung permeability (albumin content in BALF)” value is reported as “significantly preserved” and the “lung functionality (airway hyperreactivity to methacholine)” value is given as “significantly preserved”.

`O=C(CCCCCCNC(=O)c1cnc(N(c2ccccc2)c2ccccc2)nc1)NO` [ricolinostat]: in the assay on human neutrophils, the “PMA-induced gasdermin D (GSDMD) cleavage” value is listed as “not altered” and the “activation of apoptosis or necroptosis” value is recorded as “excluded the activation of apoptosis or necroptosis”. In addition, the H3 citrullination entry in the assay on human neutrophils (FIGS. 1E and 1F) is on record as “significantly decreased”. The “histone H3 acetylation” value in the assay on human neutrophils (untreated as well as PMA-treated cells, FIGS. 1E and 1F) is listed as “boosted”. In addition, in the assay with poly(I:C)-treated mice, the “NET induction (CitH3 and MPO-DNA complexes in BALF and lung tissue)” value is “abrogated”; the “neutrophils in the BALF and in the lung” value was “trend of accumulation”; the “neutrophil levels in the blood” value is given as “did not change significantly”; the “morbidity, measured as temperature drop” value is “significantly reduced”. Also, in the assay with poly(I:C)-treated mice, the “lung permeability (albumin content in BALF)” value is reported as “significantly preserved” and the “lung functionality (airway hyperreactivity to methacholine)” value is on record as “significantly preserved”. For the same molecule, the “activity compared with GSK484 in all the conditions tested” value in the assay with poly(I:C)-treated mice (outcompeted i.e. increased survival of neutrophils in the BALF) was “phenocopied, and in some cases outcompeted”.

These data come from patent US20240366594A1, “Small Molecule Inhibitors of Formation of Neutrophil-Derived Extracellular Traps (NETosis) and Uses Thereof” (The Brigham and Women's Hospital, Inc., priority 2021, published 2024).
